# Where “and” joins values, the source holds several entries; their conditions need not be identical. Equal entries are not always repeated.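 Values below derive from 48-hour exposures of cells grown in 96-well plates, with endpoints linearly interpolated between the two concentrations bracketing the appropriate inhibition level. GI50 = concentration required for 50% inhibition of growth. TGI: total growth inhibition.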
# How the values were obtained:
# Experiment in all cases: NCI tumour cell line growth inhibition, 48 h
# SF-295 CNS = test system: SF-295 CNS
# HL-60(TB) leukemia = test system: HL-60(TB) leukemia
# RPMI-8226 leukemia = test system: RPMI-8226 leukemia
# MALME-3M melanoma = test system: MALME-3M melanoma
# 786-0 renal = test system: 786-0 renal
# UO-31 renal = test system: UO-31 renal
# NCI-H522 lung = test system: NCI-H522 lung
# SK-OV-3 ovarian = test system: SK-OV-3 ovarian
# HS 578T breast = test system: HS 578T breast
# SR leukemia = test system: SR leukemia
Compound,TGI (SF-295 CNS) [µM],TGI (HL-60(TB) leukemia) [µM],TGI (RPMI-8226 leukemia) [µM],TGI (MALME-3M melanoma) [µM],TGI (786-0 renal) [µM],TGI (UO-31 renal),TGI (NCI-H522 lung) [µM],TGI (SK-OV-3 ovarian) [µM],TGI (HS 578T breast) [µM],GI50 (SF-295 CNS) [µM],GI50 (HS 578T breast) [µM],GI50 (RPMI-8226 leukemia) [µM],GI50 (SR leukemia) [µM],TGI (SR leukemia) [µM],GI50 (786-0 renal) [µM],GI50 (UO-31 renal) [µM],GI50 (NCI-H522 lung) [µM],GI50 (HL-60(TB) leukemia) [µM],GI50 (MALME-3M melanoma) [µM],GI50 (SK-OV-3 ovarian) [µM]
O=C1c2cc([N+](=O)[O-])cc3cc([N+](=O)[O-])cc(c23)C(=O)N1CCCNCCNCCCN1C(=O)c2cc([N+](=O)[O-])cc3cc([N+](=O)[O-])cc(c23)C1=O,8,1.13,0.278,1.33,3.35,3.35 µM,1.13,8.48,–,–,–,–,–,–,–,–,–,–,–,–
COC(=O)/C(=N\NC(=S)NN)C(C(=O)OC)C(=O)C(=O)Nc1cccc(C(F)(F)F)c1 (stereo unspecified),> 100,> 100,> 100,> 100,> 100,> 100 µM,> 100,> 100,> 100,–,–,–,–,–,–,–,–,–,–,–
Oc1ccc(-c2cn3cc(Cl)sc3n2)cc1,> 100,–,40.7,–,67.1,> 100 µM,> 100,–,> 100,47.3,> 100,16.5,4.51,18.8,18.2,> 100,32.6,–,–,–
CN(C)C1=NC2=S(SC(Nc3ccccc3)=N2)S1 (stereo unspecified),88.9,> 100,57.1,46.5,> 100,61.1 µM,60.2,90.4,–,–,–,–,–,> 100,–,–,–,–,–,–
O=C(O)c1ccccc1-c1ccccc1C(=O)Nc1ccc2c(c1)[nH]c(=O)c1ccccc12,> 100,> 100,> 100,> 100,> 100,> 100 µM,> 100,> 100,> 100,–,–,–,–,–,–,–,–,–,–,–
Cc1c(C(=O)/C=C/c2c(Cl)cccc2Cl)c(=O)n(-c2ccccc2)n1C,75.9,–,–,> 100,38.6,> 100 µM,48.5,> 100,–,–,–,–,–,–,–,–,–,–,–,–
O=C(O)c1cccc2cccc(C(=O)O)c12.[Hg],32.2,42.2,–,15,29.1,35 µM,2.42,33.9,–,17.8,–,–,4.05,23.5,15.4,20.7,0.687,19.3,4.04,19.6
COC1OC(COS(=O)(=O)c2ccc(C)cc2)C(O)C(OS(=O)(=O)c2ccc(C)cc2)C1OS(=O)(=O)c1ccc(C)cc1 (stereo unspecified),> 100,> 100,> 100,> 100,> 100,> 100 µM,> 100,> 100,–,–,–,–,–,> 100,–,–,–,–,–,–
O=C(CN1C(=O)S/C(=C\C(Cl)=C\c2ccccc2)C1=O)NCCc1ccc(O)cc1,4.29,–,6.96,5.96,3.54,3.31 µM,5.77,> 100,7.97,2.1,2.72,1.74,0.955,> 100,1.84,1.64,1.96,–,2.03,3.48
CCOC(=O)NC(=O)c1cn(CCCOC(=O)NCCCCCCNC(=O)OCCCn2cc(C(=O)NC(=O)OCC)c(=O)[nH]c2=O)c(=O)[nH]c1=O,49.4,41.7,39.2,–,49.9,–,–,> 100,–,–,–,–,–,–,–,–,–,–,–,–
NC(=O)CCC(NC(=O)Cc1ccccc1)C(=O)O (stereo unspecified) (tested in a mixture with another compound),> 8130,> 8130,> 8130,> 8130,> 8130,2100 µM and > 8130 µM,> 8130,> 8130,–,–,–,–,–,> 8130,–,–,–,–,–,–
CC1=NC(C(C)C)C(=O)O1 (stereo unspecified),> 100,> 100,56,> 100,> 100,> 100 µM,> 100,> 100,–,–,–,–,–,–,–,–,–,–,–,–
CC(=O)OC1CC2C(C)(C)C(=O)C=C[C@]2(C)C2CCC3(C)C(c4ccoc4)[C@@H](O)[C@H]4O[C@]43[C@]12C (stereo partly specified),42.5,46.7,67.1,51.7,31.4,31.8 µM,28,42.5,–,–,–,–,–,41.4,–,–,–,–,–,–
COc1cc(Nc2nc3cc(C(F)(F)F)ccc3nc2-c2ccccc2)cc(OC)c1OC,> 100,> 100,–,> 100,> 100,> 100 µM,83.4,> 100,–,–,–,–,–,> 100,–,–,–,–,–,–
CC1=CC(=O)c2c(C=O)c(O)c(O)c(C(C)C)c2C1=O,–,> 79.5,> 62.8,68.2,45.5,> 56.8 µM,32.4,> 100,–,–,–,–,–,> 74.4,–,–,–,–,–,–
O=C1NC(c2c(Cl)cccc2Cl)Nc2ccccc21 (stereo unspecified),> 100,46.9,> 100,88.7,> 100,> 100 µM,> 100,> 100,74.1,–,–,–,–,–,–,–,–,–,–,–
COC(=O)C1=C(CS(=O)c2ccc([N+](=O)[O-])cc2[N+](=O)[O-])ON(C)C1c1ccccc1 (stereo unspecified),> 100,24.2,46,> 100,> 100,> 100 µM,32.1,> 100,–,–,–,–,–,–,–,–,–,–,–,–
COc1ccc(NC(=O)CC(=O)N2N=C(N(CCC#N)c3cccc(C)c3)CC2c2ccccc2)cc1 (stereo unspecified),> 100,> 100,> 100,> 100,> 100,> 100 µM,> 100,> 100,–,–,–,–,–,> 100,–,–,–,–,–,–
COc1ccc(-c2cc(-c3cc(C)ccc3O)[nH]c(=O)n2)cc1,> 100,> 100,> 100,> 100,> 100,> 100 µM,94,> 100,–,–,–,–,–,> 100,–,–,–,–,–,–
CCC1CC(C)=CCN1S(=O)(=O)c1ccc(C)cc1 (stereo unspecified),> 100,18,20.5,61.7,> 100,66.6 µM,46.4,> 100,–,–,–,–,–,32.7,–,–,–,–,–,–
COc1ccc(C(=O)CC(=O)C(=O)Nc2ccc(C)c(C)c2)cc1,> 100,> 64.3,> 68,> 100,> 100,> 100 µM,> 100,> 100,–,–,–,–,–,> 100,–,–,–,–,–,–
CCCCCNC(=O)c1c(O)[nH]c(=S)[nH]c1=O,> 100,> 100,> 100,> 100,> 100,–,> 100,> 100,–,–,–,–,–,> 100,–,–,–,–,–,–

# Reference: PubChem BioAssay (NCI)
